# System: Mouse
# Experiment: Mouse Tetrabenazine Antagonism Assay (TBZ 32 mg/kg i.p.; exploratory activity and reversal of ptosis)
# Assay type: in vivo
# Settings: mice, (1:1) fumarate salt
# Protocol: In this test, mice are injected with a test compound 30 min prior to the injection of 32 mg/kg i.p. of TBZ, a drug which decreases normal exploratory activity and induces ptosis. After 30 min. the mice are tested for two parameters: the presence of normal exploratory activity (EA) and reversal of ptosis (Pt). A control group of mice is given only 32 mg/kg i.p. of TBZ. The biological activity of the novel compounds of this invention may be understood by the representative, nonlimiting example, presented in Table I.
# [1] = @ 3 mg/kg i.p., 30 min before 32 mg/kg i.p. TBZ
compound,measurement,setting,value
"O=C(O)/C=C/C(=O)O.c1ccc([C@@H]2CN3CC[C@@H]3c3ccccc32)cc1 (relative stereo) [Example 1d, trans-1,4,5,9b-Tetrahydro-5-phenyl-2H-azeto[2,1-a]isoquinoline (E)-2-butenedioate]",ED50,"Mus musculus, ip, i.p., TBZ 32 mg/kg i.p.",1.25 mg/kg
same,% inhibition EA (exploratory activity),[1],50%
same,% inhibition Pt (reversal of ptosis),[1],88%
